Reference: patent US20230201134A1, “COMPOSITIONS FOR THE MANAGEMENT OF DEMYELINATING DISORDERS” (priority 2021, published 2023)

Assays:
Format in all cases: in vivo, mouse
C56BL/6 J mice [1] = assay: Grip strength test in demyelinated mice; details: forelimb strength, compared to the demyelinated control; Withaferin A 25 mg/kg, BDMC 12.5 mg/kg, combination 37.5 mg/kg
Excerpt: (§1) The Eight-week-old male C56BL/6 J mice were selected and randomized into ten animals in each group (Table 1). Demyelination was induced by 0.3% cuprizone in combination with rapamycin (Hilary H S, Kathryn K B, Daniela C P, Priya N, Wendy B M. A New Model of Cuprizone-Mediated Demyelination/Remyelination. Am Society Neurochem. 2014: 1-16). Briefly, groups undergo demyelination by feeding on a diet containing 0.3% cuprizone mixed into Rodent Diet. These mice received additionally intra-peritoneal rapamycin injections 5 days a week with a vehicle solution.
(§2) After 8 weeks of treatment, all cuprizone feedings and all injections of rapamycin was discontinued. The animals were subjected to behavioral analysis and at end of study, brain samples and serum samples were collected for estimation of Molecular and protein biomarkers by ELISA and Immunohistochemistry of brain was assessed for Demyelination/Remyelination.

[2] = system: Amphoterin-induced protein 3 (AMIGO3); assay: AMIGO3 in brain tissue homogenate (ELISA), cuprizone/rapamycin demyelination model; details: compared to the demyelination control, Withaferin A 25 mg/kg, BDMC 12.5 mg/kg, combination 37.5 mg/kg, orally once per day
Excerpt: as §1, §2
(§3) Withaferin A or BDMC were administered orally once per day to mouse, for 8 weeks after treatment with Cuprizone and Rapamycin (Table 1). The dose response of BDMC or Withaferin was assessed by measuring concentration of biomarkers, Myelin Oligodendrocyte Glycoprotein (MOG) (FIG. 1) Brain Derived Neurotrophic Factor (BDNF) (FIG. 2), in serum. […]

C56BL/6 J mice [3] = assay: Motor coordination and learning: Rotarod test in demyelinated mice; details: Rotarod 16 rpm, 60 s, Withaferin A 25 mg/kg, BDMC 12.5 mg/kg, combination 25 + 12.5 mg/kg, demyelinated control 3/10
Excerpt: as §1, §2
Motor coordination and balance were evaluated in a Rotarod apparatus which consists of a motor-driven rotating rod whose speed can be adjusted. All mice were evaluated on the Rotarod three times a day for two consecutive days, with the rotation set at 15 to 16 revolutions per minute (rpm) (Rozas, G.; Guerra, M. J.; Labandeira Garcia, J. L. An automated Rotarod method for quantitative drug-free evaluation of overall motor deficits in rat models of Parkinsonism. Brain Res. Protoc. 1997, 2, 75-84). To test the performance, the mice were placed on the rotating cylinder at an angle of 45 with an initial rotation speed of 16 rpm, and were allowed to run for 60 s. The trial was repeated after 5-10 min. The falls and flips (when the animal hangs on to the cylinder and continues all the way around) were recorded within 60 s of each trial.

[4] = system: Myelin Oligodendrocyte Glycoprotein (MOG), Brain Derived Neurotrophic Factor (BDNF); assay: Dose response study, MOG and BDNF in serum; details: orally once per day for 8 weeks; from serum MOG and BDNF dose response
Excerpt: as §1
Withaferin A or BDMC were administered orally once per day to mouse, for 8 weeks after treatment with Cuprizone and Rapamycin (Table 1). The dose response of BDMC or Withaferin was assessed by measuring concentration of biomarkers, Myelin Oligodendrocyte Glycoprotein (MOG) (FIG. 1) Brain Derived Neurotrophic Factor (BDNF) (FIG. 2), in serum.

C-reactive Protein (CRP) = assay: C-reactive protein (ELISA), cuprizone/rapamycin demyelination model; details: compared to the demyelination control, Withaferin A 25 mg/kg, BDMC 12.5 mg/kg, combination 37.5 mg/kg, orally once per day
Excerpt: as §1, §2, §3

[5] = system: Myelin basic protein (MBP); assay: Myelin basic protein in brain tissue homogenate (ELISA), cuprizone/rapamycin demyelination model; details: compared to the demyelination control, Withaferin A 25 mg/kg, BDMC 12.5 mg/kg, combination 37.5 mg/kg, orally once per day
Excerpt: as §1, §2, §3

[6] = system: CXC chemokine receptor 2 (CXCR2); assay: CXCR2 in brain tissue homogenate (ELISA), cuprizone/rapamycin demyelination model; details: compared to the demyelination control, Withaferin A 25 mg/kg, BDMC 12.5 mg/kg, combination 37.5 mg/kg, orally once per day
Excerpt: as §1, §2, §3

C56BL/6 J mice [7] = assay: Locomotor activity test (Actophotometer) in demyelinated mice; details: 5 minutes, p.o., Mean ± S.E., 10 animals; for locomotor activity score, 3 hr after treatment: demyelinated control 148 ± 14.48; for locomotor activity score, 2 hr after treatment: demyelinated control 158 ± 14.02; for locomotor activity score, 1 hr after treatment: demyelinated control 170 ± 20.18
Excerpt: as §1, §2
Actophotometer (Activity cage) is designed to study the spontaneous or induced or locomotor activity in small animals like mice or rats. In this apparatus, the Optical sensors and emitters are present to record the horizontal movements of the animals on a six-digit digital counter display. Each animal was placed in Actophotometer for 5 minutes and basal activity score was recorded for all animals. Each animal was treated with respective drugs and activity score was recorded after 1, 2, and 3 hours.

[8] = system: Transient receptor potential ankyrin 1 (TRPA1); assay: TRPA1 in brain tissue homogenate (ELISA), cuprizone/rapamycin demyelination model; details: compared to the demyelination control, Withaferin A 25 mg/kg, BDMC 12.5 mg/kg, combination 37.5 mg/kg, orally once per day
Excerpt: as §1, §2, §3

[9] = system: Chondroitin Sulfate Proteoglycan 4 (NG2); assay: NG2 in brain tissue homogenate (ELISA), cuprizone/rapamycin demyelination model; details: compared to the demyelination control, Withaferin A 25 mg/kg, BDMC 12.5 mg/kg, combination 37.5 mg/kg, orally once per day
Excerpt: as §1, §2, §3

[10] = system: Platelet Derived Growth Factor Receptor alpha (PDGFRa); assay: PDGFRa in brain tissue homogenate (ELISA), cuprizone/rapamycin demyelination model; details: compared to the demyelination control, Withaferin A 25 mg/kg, BDMC 12.5 mg/kg, combination 37.5 mg/kg, orally once per day
Excerpt: as §1, §2, §3

C56BL/6 J mice [11] = assay: Immunohistochemistry of brain for demyelination/remyelination; details: GST-π staining; Withaferin A 25 mg/kg, BDMC 12.5 mg/kg, combination 37.5 mg/kg; versus demyelinated control
Excerpt: as §1, §2

Compound: O=C(/C=C/c1ccc(O)cc1)CC(=O)/C=C/c1ccc(O)cc1 [BDMC, Bisdemethoxycurcumin]
- improvement in the grip strength (C56BL/6 J mice [1]): 37.5%
- down regulation of AMIGO3 inflammatory marker [2]: 27%
- No. of mice which stayed on rota rod/total no. of animals (C56BL/6 J mice [3]): 5/10
- optimum effective dose [4]: 12.5 mg/kg
- down regulation of C-reactive Protein (CRP) inflammatory marker (C-reactive Protein (CRP)): 35%
- proliferation of Myelin basic protein (MBP) [5]: 122%
- down regulation of CXC chemokine receptor 2 (CXCR2) inflammatory marker [6]: 35%
- locomotor activity score, 3 hr after treatment (C56BL/6 J mice [7]): 190 ± 7.35
- locomotor activity score, 2 hr after treatment (C56BL/6 J mice [7]): 200 ± 10.70
- locomotor activity score, 1 hr after treatment (C56BL/6 J mice [7]): 220 ± 21.11
- down regulation of TRPA1 inflammatory marker [8]: 17%
- upregulation of NG2 [9]: 90%
- upregulation of PDGFRa [10]: 73%

Compound: CC1=C(CO)C(=O)O[C@@H]([C@@H](C)[C@H]2CC[C@H]3[C@@H]4C[C@H]5O[C@]56[C@@H](O)C=CC(=O)[C@]6(C)[C@H]4CC[C@]23C)C1 [Withaferin A]
- improvement in the grip strength (C56BL/6 J mice [1]): 25%
- down regulation of AMIGO3 inflammatory marker [2]: 36%
- No. of mice which stayed on rota rod/total no. of animals (C56BL/6 J mice [3]): 5 out of 10
- No. of mice which stayed on rota rod/total no. of animals (C56BL/6 J mice [3]; listed as Withaferin): 5/10
- optimum effective dose [4]: 25 mg/kg
- down regulation of C-reactive Protein (CRP) inflammatory marker (C-reactive Protein (CRP)): 32%
- proliferation of Myelin basic protein (MBP) [5]: 64%
- down regulation of CXC chemokine receptor 2 (CXCR2) inflammatory marker [6]: 32%
- immunohistochemistry findings of cerebellar cortical layer (C56BL/6 J mice [11]): few degenerated Purkinje cells with pyknotic cell bodies and inconspicuous dendritic processes
- locomotor activity score, 3 hr after treatment (C56BL/6 J mice [7]): 200 ± 9.01
- locomotor activity score, 2 hr after treatment (C56BL/6 J mice [7]): 210 ± 17.23
- locomotor activity score, 1 hr after treatment (C56BL/6 J mice [7]): 240 ± 17.22
- down regulation of TRPA1 inflammatory marker [8]: 43%
- upregulation of NG2 [9]: 30%
- upregulation of PDGFRa [10]: 22%
